In PMC11375786, “Induction of Paraptotic Cell Death in Cancer Cells by Triptycene–Peptide Hybrids and the Revised Mechanism of Paraptosis II” (Biochemistry, 2024):
Where two headings read alike, the source gives them in different places.

Assays:
HeLa-S3 cells [1] = assay: cells; details: 1 h
Procedure: (§1) HeLa S3 cells (human cervical carcinoma) were cultured in Minimum essential medium (MEM) containing 10% FBS, penicillin, and streptomycin. A549 cells (human lung carcinoma) and IMR90 cells (human fetal lung fibroblast) were cultured in Dulbecco’s modified Eagle’s medium (DMEM) with 10% FBS, penicillin, and streptomycin. All cells were cultured at 37 °C under a humidified atmosphere containing 5% CO2.
(§2) Jurkat, HeLa-S3, A549 cells (2.0 × 10^5 cells/mL) and IMR90 cells (1.0 × 10^5 cells/mL) were incubated in the presence of 3–7 for 1 h, and etoposide, cisplatin and celastrol for 24 h (50 μL) in cell culture medium under CO2 at 37 °C in 96-well plates (BD Falcon). MTT reagent (5 mg/mL) in PBS (10 μL) was then added to the cells. After incubation at 37 °C for 4 h, a formazan lysis solution (10% sodium dodecyl sulfate (SDS) in 0.01 N HCl) (100 μL) was added and the resultant solution was incubated overnight under the same conditions, which was followed by measurement of the absorbance at 570 nm using a microplate reader (ARVO, PerkinElmer).

IMR90 cells [2] = assay: cells
Procedure: as §1, §2

A549 cells [3] = assay: cells; details: 1 h
Procedure: as §1, §2

Jurkat cells [4] = assay: cells; details: 1 h
Procedure: as §1, §2

[5] = system: Ca^2+ concentrations in mitochondria and cytosol in HeLa-S3 cells; assay: Rhod-2/AM and Rhod-4/AM emission (mitochondrial and cytosolic Ca2+) in HeLa-S3 cells; type: cell-based, human; details: 4 5 μM 1 h
Procedure: (§3) Jurkat, HeLa-S3, and A549 cells (2.0 × 10^5 cells) were preincubated with Rhod-2/AM (final concentration = 5 μM) or Rhod-4/AM (final concentration = 5 μM) in medium under 5% CO2 at 37 °C for 30 min and then treated with 4 (final concentration = 2.5, 5, or 10 μM) for 0, 15, 30, 45, and 60 min. HeLa-S3 and A549 cells were detached by accutase, immediately after which the cells were suspended in 300 μL of cell culture medium and then analyzed on a flow cytometer (FACS Calibur cytometer, Becton), and the data were analyzed using the FlowJo software (FlowJo, LCC).
(§4) Jurkat, HeLa-S3, A549, and IMR90 cells (2.0 × 10^5 cells) were stained with Rhod-2/AM or Rhod-4/AM (final concentration = 5 μM) for 30 min at 37 °C under 5% CO2. The cells were washed with PBS and were treated with 4 (final concentration = 2.5, 5, or 10 μM) in cell culture medium for 30 and 60 min at 37 °C under 5% CO2. To test the effect of celastrol and cisplatin in HeLa-S3 and A549 cells, the cells were incubated with celastrol (final concentration = 100 μM) and cisplatin (final concentration = 100 μM) for 2–6 h. After washing with PBS, the cells were observed via fluorescence microscopy (BZ-X800, Keyence) using a Greiner CELLview Petri dish (35 × 10 mm^2). Emission images were observed using a TRITC filter (excitation 540 nm, emission 605 nm).
(§5) Jurkat, HeLa-S3, A549, and IMR90 cells (8.0 × 10^4 cells) were incubated with CCCP or 2-APB for 1 h and then stained with Rhod-2/AM or Rhod-4/AM (final concentration = 5 μM) for 30 min at 37 °C under 5% CO2. The cells were washed with PBS and were treated with 4 (final concentration = 2.5, 5, or 10 μM) in PBS for 0–60 min at 37 °C in a microplate reader (ARVO, PerkinElmer). Excitation at 540 nm and emission at 590 nm were used for the measurement of Rhod-2/AM and Rhod-4/AM on the microplate reader.

A549 cells [6] = assay: Costaining of ER and mitochondria (ERTracker Red, MitoTracker Green), confocal microscopy, A549 cells; type: cell-based, human; details: 4 10 μM, 15 min; celastrol 100 μM
Procedure: (§6) Jurkat, HeLa-S3, A549, and IMR90 cells (2.0 × 10^5 cells) were incubated with 4 (final concentration = 2.5 μM (for Jurkat), 5 μM (for HeLa-S3), 10 μM (for A549) and 5 μM and 50 μM (for IMR90)) in cell culture medium at 37 °C under 5% CO2. After incubation, MitoTracker Green (final concentration = 100 nM (for Jurkat) or 500 nM (for HeLa-S3, A549 and IMR90)), or ERTracker Red (final concentration = 500 nM (for Jurkat) or 1 μM (for HeLa-S3, A549 and IMR90)) were applied for 1 h under the same conditions. After washing with PBS, the cells were observed via confocal fluorescence microscopy (FluoView, FV-1000, Olympus). Excitation at 473 nm and emissions from 485 to 585 nm were used for detecting the MitoTracker Green. Excitation at 559 nm and emissions from 570 to 670 nm were used for detecting the ERTracker Red. Exposure time was 20 μs/pixel.

[7] = system: intracellular Zn^2+ in Jurkat cells; assay: Zinquin fluorescence microscopy in Jurkat cells; type: cell-based; details: 4 2.5 μM 1 h; celastrol 5 μM, etoposide 5 μM, cisplatin 100 μM 24 h
Procedure: (§7) Jurkat cells (2.0 × 10^5 cells) were treated with 4 (2.5 μM), etoposide (5 μM), cisplatin (100 μM) and celastrol (5 μM) and stained with Mito-FerroGreen (a probe for labile Fe^2+ in mitochondria) (5 μM) and zinquin (a probe for intracellular Zn^2+) (25 μM). The cell images were observed via fluorescence microscopy.

[8] = system: labile Fe^2+ in mitochondria of Jurkat cells; assay: Mito-FerroGreen fluorescence microscopy in Jurkat cells; type: cell-based; details: 4 2.5 μM 1 h; celastrol 5 μM, etoposide 5 μM, cisplatin 100 μM 24 h
Procedure: as §7

[9] = system: Ca^2+ concentrations in mitochondria and cytosol in A549 cells; assay: Rhod-2/AM and Rhod-4/AM emission (mitochondrial and cytosolic Ca2+) in A549 cells; type: cell-based, human; details: 4 10 μM 1 h; celastrol 100 μM 2–6 h
Procedure: as §3, §4, §5

Jurkat cells [10] = assay: Costaining of ER and mitochondria (ERTracker Red, MitoTracker Green), confocal microscopy, Jurkat cells; type: cell-based; details: 4 2.5 μM, 15 min
Procedure: as §6

[11] = system: Ca^2+ concentrations in mitochondria in IMR90 cells; assay: Rhod-2/AM emission (mitochondrial Ca2+) in IMR90 cells; type: cell-based, human; details: 4 5 μM, 0–60 min
Procedure: as §4, §5

Jurkat cells [12] = type: cell-based; details: 1 h
Procedure: MTT reagent (5 mg/mL) in PBS (10 μL) was then added to the cells. After incubation at 37 °C for 4 h, a formazan lysis solution (10% sodium dodecyl sulfate (SDS) in 0.01 N HCl) (100 μL) was added and the resultant solution was incubated overnight under the same conditions, which was followed by measurement of the absorbance at 570 nm using a microplate reader (ARVO, PerkinElmer).

[13] = system: Ca^2+ concentrations in mitochondria and cytosol in Jurkat cells; assay: Rhod-2/AM and Rhod-4/AM emission (mitochondrial and cytosolic Ca2+) in Jurkat cells; type: cell-based; details: 4 2.5 μM, 0–60 min
Procedure: as §3
Jurkat, HeLa-S3, A549, and IMR90 cells (2.0 × 10^5 cells) were stained with Rhod-2/AM or Rhod-4/AM (final concentration = 5 μM) for 30 min at 37 °C under 5% CO2. […] After washing with PBS, the cells were observed via fluorescence microscopy (BZ-X800, Keyence) using a Greiner CELLview Petri dish (35 × 10 mm^2). […]
as §5

HeLa-S3 cells [14] = assay: Costaining of ER and mitochondria (ERTracker Red, MitoTracker Green), confocal microscopy, HeLa-S3 cells; type: cell-based, human; details: 4 5 μM, 5 and 10 min; celastrol 100 μM
Procedure: as §6

IMR90 cells [15] = assay: Costaining of ER and mitochondria (ERTracker Red, MitoTracker Green), confocal microscopy, IMR90 cells; type: cell-based, human; details: 4 5 or 50 μM, 15 or 60 min
Procedure: as §6

EC50 (HeLa-S3 cells [1]): 1600 ± 100 nM
EC50 (IMR90 cells [2]; 1 h): > 12500 nM
EC50 (IMR90 cells [2]; 5 h): 4400 nM
EC50 (A549 cells [3]): 2400 ± 100 nM
EC50 (Jurkat cells [4]): 700 ± 100 nM
EC50 (Jurkat cells [12]): 1800 nM
Structure (SMILES): NCCCC[C@H](NC(=O)[C@H](CCCCN)NC(=O)[C@@H](N)CCCCN)C(=O)N[C@@H](CC1CCCCC1)C(=O)NCC(=O)NCCCCCCCCNC(=O)COc1cccc2c1C1c3c(OCC(=O)NCCCCCCCCNC(=O)CNC(=O)[C@H](CC4CCCCC4)NC(=O)[C@H](CCCCN)NC(=O)[C@H](CCCCN)NC(=O)[C@@H](N)CCCCN)cccc3C2c2cccc(OCC(=O)NCCCCCCCCNC(=O)CNC(=O)[C@H](CC3CCCCC3)NC(=O)[C@H](CCCCN)NC(=O)[C@H](CCCCN)NC(=O)[C@@H](N)CCCCN)c21 [compound 4]
Emission of Rhod-4/AM (cytosolic Ca2+) in HeLa-S3 cells ([5]; celastrol 100 μM 2–6 h): negligible enhancement
Emission of Rhod-2/AM (mitochondrial Ca2+) in HeLa-S3 cells ([5]; celastrol or cisplatin 100 μM 2–6 h): enhancement of the red emission
Overlap of emission from MitoTracker Green and ERTracker Red in A549 cells (A549 cells [6]): considerable overlap
Emission from zinquin (intracellular free Zn2+) in Jurkat cells [7]: negligibly enhanced
Emission from Mito-FerroGreen (free Fe2+ in mitochondria) in Jurkat cells [8]: negligibly enhanced
Emission of Rhod-2/AM (mitochondrial Ca2+) in A549 cells [9]: enhancement of the red emission
Emission of Rhod-4/AM (cytosolic Ca2+) in A549 cells [9]: negligible enhancement
Overlap of emission from MitoTracker Green and ERTracker Red in Jurkat cells (Jurkat cells [10]): considerable overlap
Emission of Rhod-2/AM (mitochondrial Ca2+) in IMR90 cells [11]: somewhat slower emission enhancement
Emission of Rhod-4/AM (cytosolic Ca2+) in Jurkat cells [13]: moderate∼weak enhancement
Overlap of emission from MitoTracker Green and ERTracker Red in HeLa-S3 cells (HeLa-S3 cells [14]): considerable overlap
Overlap of emission from MitoTracker Green and ERTracker Red in IMR90 cells (IMR90 cells [15]): weak overlap
